What was measured:
[1] = tested on: human lung cancer LU-01-0414 subcutaneous xenograft tumor; assay: In vivo efficacy, subcutaneous xenograft tumor of human lung cancer LU-01-0414; design: species or system BALB/c mouse; details: LU-01-0414 xenograft, 14th day, PO
Method: Experimental object: evaluation of the in vivo efficacy of test drugs such as WX002A on subcutaneous xenograft tumor of human lung cancer LU-01-0414 in BALB/c mouse model.
Drug preparation: The compounds were all prepared into clear solutions with 5% DMSO+10% solutol+85% water as solvent for administration in the PO (intragastric) group.
Tumor measurement: the tumor diameters were measured with a vernier caliper twice a week. The calculation formula of tumor volume is: V=0.5×a×b^2, wherein a and b represent the long diameter and short diameter of the tumor, respectively. The anti-tumor efficacy of the compounds was evaluated by TGI (%). TGI (%) reflects tumor growth inhibition rate.
Statistical analysis: the statistical analysis was based on the relative tumor volume and tumor weight at the end of the experiment using SPSS software. One-way ANOVA was used to analyze the comparison between multiple groups. […] P<0.05 was considered to indicate significant difference.

[2] = target: T1, Ba/F3 LMNA-NTRK1-WT stably transfected cell line (Homo sapiens, UniProt P04629); assay: Cell proliferation inhibition (CellTiter-Glo); type: cell-based; details: 72 hours, read-out: The half maximal inhibitory concentration IC50 against cells, Ba/F3 LMNA-NTRK1-WT
T1 construct: fused on or other part: P02545 (Prelamin-A/C)
T1 sequence (P04629 whole entry, stated change not applied, the tested form may be a part): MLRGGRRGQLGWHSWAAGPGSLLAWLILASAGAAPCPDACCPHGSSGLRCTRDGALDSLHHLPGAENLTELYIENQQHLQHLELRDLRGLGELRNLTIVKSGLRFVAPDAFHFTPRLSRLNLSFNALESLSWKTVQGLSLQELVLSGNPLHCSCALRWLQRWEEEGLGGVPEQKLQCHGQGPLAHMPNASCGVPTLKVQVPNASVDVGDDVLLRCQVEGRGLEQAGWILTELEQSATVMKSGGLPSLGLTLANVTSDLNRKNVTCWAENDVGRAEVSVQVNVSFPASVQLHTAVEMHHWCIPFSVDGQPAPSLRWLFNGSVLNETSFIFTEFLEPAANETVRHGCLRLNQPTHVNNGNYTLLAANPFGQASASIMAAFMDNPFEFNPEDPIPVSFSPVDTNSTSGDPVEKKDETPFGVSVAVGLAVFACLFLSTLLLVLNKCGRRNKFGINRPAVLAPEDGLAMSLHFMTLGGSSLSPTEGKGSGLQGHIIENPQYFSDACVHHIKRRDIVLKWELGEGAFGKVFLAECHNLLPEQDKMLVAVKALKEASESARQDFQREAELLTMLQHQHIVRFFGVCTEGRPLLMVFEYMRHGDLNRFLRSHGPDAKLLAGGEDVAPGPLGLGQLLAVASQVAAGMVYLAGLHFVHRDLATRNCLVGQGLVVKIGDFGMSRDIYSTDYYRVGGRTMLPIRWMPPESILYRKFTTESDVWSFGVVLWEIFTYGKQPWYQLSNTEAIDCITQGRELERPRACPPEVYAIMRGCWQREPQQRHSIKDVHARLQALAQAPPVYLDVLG
Method: Adenosine Tri-Phosphate (ATP) is an energy carrier shared by various life activities in nature, and is the smallest unit of energy storage and transfer. The CellTiter-Glo™ cell viability detection kit uses luciferase as the detection substance, and luciferase requires the participation of ATP during the process of luminescence. CellTiter-Glo™ reagent is added to cell culture medium, and the luminescent intensity is measured. The luminescent signal is directly proportional to the amount of ATP in the system, and ATP is positively related to the number of living cells. Therefore, by using the CellTiter-Glo kit to detect ATP content, cell proliferation can be detected. In this assay, the cell line is Ba/F3 LMNA-NTRK1-WT stably transfected cell line, with 5000 cells/well.
IC50 Determination Process:
1. Cell Culture and Inoculation
a) the cells in the logarithmic growth phase were harvested, and counted with a platelet counter. Trypan blue exclusion method was used to detect cell viability to ensure the cell viability was no less than 90%.
b) the cell concentration was adjusted; 90 μL of cell suspension was added respectively into a 96-well plate.
c) the cells in the 96-well plates was cultured under conditions of 37° C., 5% CO2 and 95% humidity overnight.
2. Drug Dilution and Administration
a) 10-fold drug solutions were prepared, the highest concentration was 10 μM, 9 concentrations, 3-fold diluted (refer to Appendix I). 10 μL of each drug solution was added to each well of the 96-well plate seeded with the cells in triplicate.
b) the cells in the 96-well plate added with the drug were cultured under conditions of 37° C., 5% CO2 and 95% humidity for 72 hours, and then CTG (cell proliferation) was performed.
a) CellTiter-Glo™ reagent was thawed, and the cell plate was equilibrated at room temperature for 30 minutes.
b) CellTiter-Glo™ reagent of a same volume was added to each well;
c) the cell plate was shaken on an orbital shaker for 5 minutes to lyse the cells.
d) the cell plate was placed at room temperature for 20 minutes to stabilize the luminescent signal.
e) the luminescent intensity was read.
GraphPad Prism 5.0 software was used to analyze the data, nonlinear S-curve regression was used to fit the data to obtain dose-effect curve, and IC50 value was calculated therefrom.

TrkA = target: T2, TrkA (Homo sapiens, UniProt P04629); assay: Kinase inhibitory activity (33P-ATP filter binding, Reaction Biology Corp.); type: biochemical; details: read-out: The half maximal inhibitory concentration IC50 on the kinases, TrkA
T2 construct: purchased Reaction Biology Corp. (contract assay)
T2 sequence (P04629 33-796): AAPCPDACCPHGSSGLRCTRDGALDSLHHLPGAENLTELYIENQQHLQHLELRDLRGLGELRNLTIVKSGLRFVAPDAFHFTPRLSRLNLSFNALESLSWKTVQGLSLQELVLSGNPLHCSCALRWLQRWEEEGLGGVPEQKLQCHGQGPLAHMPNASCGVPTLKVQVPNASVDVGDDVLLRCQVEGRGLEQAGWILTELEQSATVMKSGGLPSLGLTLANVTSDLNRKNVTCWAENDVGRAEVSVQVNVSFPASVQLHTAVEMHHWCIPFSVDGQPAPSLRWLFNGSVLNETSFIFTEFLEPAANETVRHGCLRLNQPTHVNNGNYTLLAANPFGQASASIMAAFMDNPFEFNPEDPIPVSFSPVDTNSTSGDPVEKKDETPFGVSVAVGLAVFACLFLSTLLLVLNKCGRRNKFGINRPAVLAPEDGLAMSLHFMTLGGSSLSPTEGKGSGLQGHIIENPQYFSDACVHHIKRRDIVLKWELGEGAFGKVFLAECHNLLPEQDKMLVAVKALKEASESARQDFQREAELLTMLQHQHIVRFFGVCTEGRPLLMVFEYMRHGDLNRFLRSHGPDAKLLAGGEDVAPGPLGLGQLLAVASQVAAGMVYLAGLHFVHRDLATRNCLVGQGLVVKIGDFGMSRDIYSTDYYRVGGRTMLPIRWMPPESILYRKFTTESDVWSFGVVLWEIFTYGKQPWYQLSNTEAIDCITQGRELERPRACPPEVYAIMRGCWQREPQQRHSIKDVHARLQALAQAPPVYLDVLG
Method: The mixture was incubated at room temperature for 20 minutes. To the reaction mixture was added a certain concentration of ^33P-ATP to initiate the reaction, and then the mixture was incubated at room temperature for 120 minutes. The radioactivities of the reactants were determined by the method of filter binding. The final kinase activity was expressed as the ratio of the remaining kinase activity in the test sample to the kinase activity in the DMSO control group. The dose-effect curve was fitted by GraphPad software and the IC50 was calculated.

[3] = In vivo cassette pharmacokinetic test in mice; design: species or system male CD-1 mice; details: male, CD-1, mouse, in vivo, po, 3 mg/kg, 2 h
Method: The dose of the compounds: […] PO dose of 3 mg/kg, and administration volume of 3 mL/kg.

[4] = In vivo pharmacokinetic test in mice; design: species or system male CD-1 mice; details: PO dose of 10 mL/kg
Method: Experimental object: male CD-1 mice aged 7-9 weeks were used as the experimental animals, the LC/MS/MS method was used to determine the drug concentrations in plasma at different time points after single intravenous (IV) and intragastric (PO) administration of the compounds, in vivo pharmacokinetic behaviors of the compounds of the present disclosure in mice were studied, and pharmacokinetic characteristics thereof were evaluated. Drug preparation: The compounds were prepared into clear solutions with 5% DMSO+10% solutol+85% water as solvent for administration in IV (intravenous) group and PO (intragastric). The dose of the compounds: IV dose of 3 mg/kg, and PO dose of […].

Row | SMILES | GI50 [2] | IC50 (TrkA) | also measured
1 | C[C@@H](Oc1cc(-c2cnn(C3CCNCC3)c2)cnc1N)c1c(Cl)ccc(F)c1Cl [Crizotinib, crizotinib, reference compound] | – | – | T/C ([1]; 30 mg/kg QD): 10.32%; TGI ([1]; 30 mg/kg QD): 117.67%; T/C ([1]; 50 mg/kg QD): 4.89%; TGI ([1]; 50 mg/kg QD): 124.09%
2 | O=C1NC2(CC2)COc2ncc(F)cc2[C@@H]2CCON2c2ccn3ncc1c3n2 [WX002B] | – | > 1000 nM | –
3 | CN1CCN(c2ccc(C(=O)Nc3n[nH]c4ccc(Cc5cc(F)cc(F)c5)cc34)c(NC3CCOCC3)c2)CC1 [RXDX-101, Entrectinib, reference compound] | – | – | drug concentration in brain at 2 h Brain@2 h [3]: 30 nmol/kg
4 | O=C1NC2(CC2)COc2ccc(F)cc2[C@@H]2CCON2c2ccn3ncc1c3n2 [WX003B] | – | > 1000 nM | –
5 | O=C1N[C@@H]2CNC[C@@H]2Oc2ncc(F)cc2[C@@H]2CCON2c2ccn3ncc1c3n2 [WX012A] | – | > 1000 nM | –
6 | C[C@@H]1CCc2ncc(F)cc2[C@H]2CCCN2c2ccn3ncc(c3n2)C(=O)N1 [LOXO-195, reference compound] | – | – | Area under the curve AUC0-last [4]: 27.344 µM·h; Time of peak concentration Tmax [4]: 22.8 min; Cmax ([4]; read-out: Peak concentration Cmax): 12.7 µM

More lines, main results first:

Row | GI50 [2] | IC50 (TrkA) | SMILES | also measured
7 | 80.4 nM | 12.8 nM | CC(=O)N1CC[C@H]2NC(=O)c3cnn4ccc(nc34)N3OCC[C@@H]3c3cc(F)cnc3O[C@H]2C1 [WX014B] | –
8 | 65.1 nM | 182 nM | CCN1C[C@@H]2Oc3ncc(F)cc3[C@H]3CCON3c3ccn4ncc(c4n3)C(=O)N[C@@H]2C1 [WX015A] | –
9 | – | 220 nM | CCN1CC[C@H]2NC(=O)c3cnn4ccc(nc34)N3OCC[C@H]3c3cc(F)cnc3O[C@H]2C1 [WX016B] | –
10 | – | 270 nM | CN1CC[C@H]2NC(=O)c3cnn4ccc(nc34)N3OCC[C@H]3c3cc(F)cnc3O[C@H]2C1 [WX011B] | –
11 | 39.7 nM | 33.6 nM | CN1CC[C@H]2NC(=O)c3cnn4ccc(nc34)N3OCC[C@@H]3c3cc(F)cnc3O[C@H]2C1 [WX011A] | –
12 | 216 nM | 57.2 nM | O=C1N[C@@H]2CCNC[C@@H]2Oc2ncc(F)cc2[C@H]2CCON2c2ccn3ncc1c3n2 [WX013B] | –
13 | – | > 1000 nM | CCN1C[C@@H]2Oc3ncc(F)cc3[C@@H]3CCON3c3ccn4ncc(c4n3)C(=O)N[C@@H]2C1 [WX015B] | –
14 | 259 nM | 143 nM | O=C1N[C@@H]2CNC[C@@H]2Oc2ncc(F)cc2[C@H]2CCON2c2ccn3ncc1c3n2 [WX012B] | –

From patent publication US11464780B2, “Pyrazolopyrimidine derivative and use thereof” (Simcere Pharmaceutical Co. Ltd., priority 2018, dated 2022)
